# How the values were obtained:
# [1] = test system: PD1-ss+10aa/Gaussia Luciferase; assay: Dox-Induced PD1-ss-Gluc Assay; type: cell-based; conditions: 24 hr Dox induction; 293FRT/TO cells; read-out: 24 hr Dox Inducible PD1ssGluc 293FRT/TO: Mean IC50
# How it was run: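 Compounds were added in DMSO/media with doxycycline and incubated at 37 °C, 5% CO2, on 293 T-REx cells plated one day earlier. These cells stably express, under tetracycline-regulated control, a Gaussia luciferase fused to the PD1 signal peptide plus 10 residues. Structures drawn without stereochemistry were tested as stereoisomer mixtures.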
# [2] = test system: TNFα-FL/Gaussia Luciferase; assay: Dox Induced TNFα-FL-Gluc Assay; type: cell-based; conditions: for IC50: 24 hr Dox induction, 293FRT/TO cells, read-out: 24 hr Dox Inducible TNFaFLGluc 293FRT/TO: Mean IC50; for 24 hr Dox Inducible TNFaFLGluc 293FRT/TO: TNF/PD1: ratio of TNFaFLGluc IC50 to PD1ssGluc IC50
# How it was run: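 Flp-In 293 T-REx cells stably expressing full-length TNFα (aa 1-233) fused at its C-terminus to Gaussia luciferase under tetracycline-regulated control were plated the day before assay. Compound dilutions in DMSO/media containing doxycycline were added and incubated at 37 °C, 5% CO2. Unspecified stereochemistry denotes stereoisomer mixtures.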
# [3] = test system: HER3-ss+4aa/Gaussia Luciferase; assay: Dox-Induced Her3-ss-Gluc Assay; type: cell-based; conditions: 24 hr Dox induction; 293FRT/TO cells; read-out: 24 hr Dox Inducible Her3(ss + 4)Gluc 293FRT/TO: Mean IC50
# How it was run: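 Stable Flp-In 293 T-REx line expressing Gaussia luciferase fused to the HER3 signal sequence plus 4 amino acids under tetracycline-regulated (T-REx) control. Cells plated the day before, then treated with compound dilutions in DMSO/media containing doxycycline and incubated at 37° C., 5% CO2.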
# [4] = test system: IL-2-FL/Gaussia Luciferase; assay: Dox Induced IL2-FL-Gluc Assay; type: cell-based; conditions: for IC50: 24 hr Dox induction, 293FRT/TO cells, read-out: 24 hr Dox Inducible IL2FLGluc 293FRT/TO: Mean IC50; for 24 hr Dox Inducible IL2FLGluc 293FRT/TO: IL2/PD1: ratio of IL2FLGluc IC50 to PD1ssGluc IC50
# How it was run: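 Flp-In 293 T-REx cells stably carrying doxycycline-inducible full-length IL-2 (aa 1-153) fused at its C-terminus to Gaussia luciferase, selected with hygromycin and blasticidin. Cells were plated the day before, then treated with compounds in DMSO/media containing doxycycline at 37° C, 5% CO2.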
# [5] = test system: multiple myeloma cell line NCI-H929; assay: H929 Cell Viability Assay; type: cell-based, human; conditions: Homo sapiens, NCI-H929, 48 h, NCI-H929 cells, Celltiter-Glo
# How it was run: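 NCI-H929 cells, resuspended in RPMI 1640 with 10% FBS and 2 mM glutamine, were treated with compound dilutions in DMSO/media and incubated 48 hours at 37° C, 5% CO2. Viability was read by CellTiter-Glo luminescence. Compounds drawn without stereochemistry were tested as stereoisomer mixtures.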
# [6] = test system: multiple myeloma cell line U266B1; assay: U266 Cell Viability Assay; type: cell-based, human; conditions: Homo sapiens, U-266, 48 h, U266B1 cells, Celltiter-Glo
# How it was run: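 Cells grown in RPMI 1640 with 10% FBS, 2 mM glutamine and penicillin/streptomycin were exposed to compound dilutions in DMSO/media for 48 hours at 37° C., 5% CO2. Viability was read by CellTiter-Glo luminescence. Undefined stereocentres mean data for stereoisomer mixtures.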
# [7] = Liver Microsome Stability Assay (rat); conditions: rat liver microsomes, with NADPH, 1.0 uM compound
# Experimental: (§1) Stability of a compound was assessed in the presence of liver microsomes from various sources—mouse, rat, monkey and human liver microsomes. 1.0 uM compound, 0.4% DMSO in 0.1 M Potassium Phosphate with 1.0 mg/mL liver microsomes, were incubated at 37° C. with or without 1 mM NADPH. The samples were quenched at 0, and 30 minutes.
# [8] = Liver Microsome Stability Assay (mouse); conditions: mouse liver microsomes, with NADPH, 1.0 uM compound
# Experimental: as §1
# [9] = Liver Microsome Stability Assay (human); conditions: human liver microsomes, with NADPH, 1.0 uM compound
# Experimental: as §1
# [10] = Liver Microsome Stability Assay (monkey); conditions: monkey liver microsomes, with NADPH, 1.0 uM compound
# Experimental: as §1
Structure (SMILES),IC50 [1],IC50 [2],24 hr Dox Inducible TNFaFLGluc 293FRT/TO: TNF/PD1 [2],IC50 [3],IC50 [4],24 hr Dox Inducible IL2FLGluc 293FRT/TO: IL2/PD1 [4],EC50 [5],EC50 [6],Liver Microsome Stability (Multiple Species): Rat - % Remaining after 30 min w/NADPH [7],Liver Microsome Stability (Multiple Species): Mouse - % Remaining after 30 min w/NADPH [8],Liver Microsome Stability (Multiple Species): Human - % Remaining after 30 min w/NADPH [9],Liver Microsome Stability (Multiple Species): Monkey - % Remaining after 30 min w/NADPH [10]
"CC(C)n1cnc(/C=C/c2csc(NC(=O)c3cccn3Cc3ccnc(F)c3)n2)c1 [Compound B45, (E)-1-((2-fluoropyridin-4-yl)methyl)-N-(4-(2-(1-isopropyl-1H-imidazol-4-yl)vinyl)thiazol-2-yl)-1H-pyrrole-2-carboxamide]",0.0421 µM,> 25 µM,>593,> 25 µM,> 22.6 µM,>540,19.9 µM,> 24.2 µM,16.3%,23.2%,0.1%,0.19%
"Cc1ocnc1/C=C/c1csc(NC(=O)c2cccn2Cc2ccnc(F)c2)n1 [Compound B47, (E)-1-((2-fluoropyridin-4-yl)methyl)-N-(4-(2-(5-methyloxazol-4-yl)vinyl)thiazol-2-yl)-1H-pyrrole-2-carboxamide]",0.0415 µM,18.8 µM,454,5.75 µM,14.5 µM,350,> 25 µM,> 25 µM,0.41%,30.8%,2.81%,1.45%
"Cc1ccc(/C=C/c2csc(NC(=O)c3cccn3Cc3ccncc3)n2)nc1F [Compound B48, (E)-N-(4-(2-(6-fluoro-5-methylpyridin-2-yl)vinyl)thiazol-2-yl)-1-(pyridin-4-ylmethyl)-1H-pyrrole-2-carboxamide]",0.0225 µM,4.14 µM,184,0.127 µM,0.576 µM,26,> 25 µM,> 25 µM,1.44%,1.17%,8.85%,1.39%
"Cc1ccc(/C=C/c2csc(NC(=O)c3cccn3Cc3ccnc(F)c3)n2)nc1F [Compound B49, (E)-N-(4-(2-(6-fluoro-5-methylpyridin-2-yl)vinyl)thiazol-2-yl)-1-((2-fluoropyridin-4-yl)methyl)-1H-pyrrole-2-carboxamide]",0.0274 µM,2.51 µM,91.4,0.131 µM,1.26 µM,46,11.2 µM,> 19.1 µM,4.13%,12.5%,1.53%,1.51%
"O=C(Nc1nc(/C=C/c2cn3ccccc3n2)cs1)c1cccn1Cc1ccncc1 [Compound B50, (E)-N-(4-(2-(imidazo[1,2-a]pyridin-2-yl)vinyl)thiazol-2-yl)-1-(pyridin-4-ylmethyl)-1H-pyrrole-2-carboxamide]",0.339 µM,> 25 µM,>73.7,11.4 µM,> 25 µM,>74,18.8 µM,> 24.6 µM,0.06%,0.94%,1.21%,0.74%
"Cc1nc(/C=C/c2csc(NC(=O)c3cccn3Cc3ccncc3)n2)cn1C [Compound B51, (E)-N-(4-(2-(1,2-dimethyl-1H-imidazol-4-yl)vinyl)thiazol-2-yl)-1-(pyridin-4-ylmethyl)-1H-pyrrole-2-carboxamide]",5.38 µM,> 25 µM,>4.65,> 25 µM,> 25 µM,>4.6,> 25 µM,> 25 µM,1.43%,6.7%,0.21%,0.27%
"O=C(Nc1nc(/C=C/c2ncoc2C2CCCCC2)cs1)c1cccn1Cc1ccncc1 [Compound B52, (E)-N-(4-(2-(5-cyclohexyloxazol-4-yl)vinyl)thiazol-2-yl)-1-(pyridin-4-ylmethyl)-1H-pyrrole-2-carboxamide]",0.0255 µM,4.84 µM,190,0.735 µM,2.1 µM,82,15.9 µM,> 25 µM,4.04%,32.1%,5.82%,10.8%
"O=C(Nc1nc(/C=C/c2ncoc2C2CCCCC2)cs1)c1cccn1Cc1ccnc(F)c1 [Compound B53, (E)-N-(4-(2-(5-cyclohexyloxazol-4-yl)vinyl)thiazol-2-yl)-1-((2-fluoropyridin-4-yl)methyl)-1H-pyrrole-2-carboxamide]",0.0381 µM,3.84 µM,101,0.878 µM,1.67 µM,44,11.2 µM,> 25 µM,2.11%,14.5%,5.98%,1.39%

# Reference: US20230286973A1, “PROTEIN SECRETION INHIBITORS” (KEZAR LIFE SCIENCES, priority 2020, published 2023)
